The record followed here is PMC7321408, “One-Pot Multicomponent Synthesis and Bioevaluation of Tetrahydroquinoline Derivatives as Potential Antioxidants, α-Amylase Enzyme Inhibitors, Anti-Cancerous and Anti-Inflammatory Agents” (Molecules, 2020).

For data set [1], the system named is NO generated by LPS-induced macrophages. Nature of the data set: Nitric oxide assay (Griess) in LPS-induced macrophages. The format is cell-based, murine. Conditions: Mus musculus, Macrophage, 18 h, LPS 1 µg/mL, read-out: % NO Production (Mean ± SEM). An outline of the steps: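 Murine macrophages (1 × 10^6/well) pre-treated 2 h with compound at 100, 50, 10 or 1 µM, then LPS 1 µg/mL for 18 h. Nitrite in medium measured with Griess reagent at 540 nm against a NaNO2 standard curve; piroxicam as positive control, t-test for significance.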

A further data set concerns raw macrophages. Nature of the data set: MTT cytotoxicity against raw macrophages. The format is cell-based, albino rats. The settings on record: mean ± SEM, n = 3. An outline of the steps:
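Peritoneal macrophages from albino rats were treated for 24 h at 37 °C, 5% CO2 with test compounds at 100, 50, 10 and 1 µM or vehicle, from DMSO stocks. MTT was then added for 2 h, formazan dissolved in DMSO and absorbance read at 570 nm. % viability = blank-corrected sample over blank-corrected control ×100.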

For data set [2], the system named is carrageenan-induced paw edema. Nature of the data set: Carrageenan-induced paw edema (in vivo anti-inflammatory activity). Conditions: 10 mg/kg, mice, n = 5. On the set-up: species or system BALB/C albino mice; unit not given beside the values. As to the method:
At 7–8 weeks old, male BALB/C albino mice (29–35 g), were purchased from The National Institute of Health (NIH), Islamabad, Pakistan. Five animals were housed per group and placed in a controlled temperature and humidity-controlled room (22 °C and 66 ± 5%, respectively) in a 12 h light–dark cycle and provided with water and food ad libitum. Ethical approval was taken from the bio-ethical committee of Quaid-I-Azam University (Approval No. BEC-FBS-QAU2018-119) and all protocols were conducted following the Ethical Guide to the Code of Practice for the Housing and Care of Animals Act 1986 (ARRIVE (Animal Research: Reporting In Vivo Experiments) guidelines). The anti-inflammatory activity of the synthesized compounds was evaluated by using the carrageenan-induced rat paw edema assay. To determine the dose response of tetrahydroquinoline derivatives, animals were first given a dose of 0.1, 1 and 10 mg/kg against 100 µL carrageenan (1% solution in normal saline)/paw. Treatment was given 60 min before carrageenan injection. Readings were taken at 4 h post carrageenan injection. The in vivo anti-inflammatory activity was performed following the procedure described by Koksal, et al. in 2017. Paw edema was induced by injecting 100 µL of 1% sterile carrageenan solution into the right hind paw of mice. Synthesized compounds (10 mg/kg), vehicle (saline with 2% DMSO) and drug (acetylsalicylic acid, ASA 10 mg/kg) were administered to the mice orally by gastric intubation 60 min before injecting carrageenan into the right hind paw. The decrease in edema was measured by vernier calipers every 2 h.
On the technique in general: Carrageenan injected into the paw causes an acute inflammation.

For a further data set, the system named is α-amylase enzyme. Nature of the data set: α-Amylase enzyme inhibitory assay. It is filed as biochemical. The settings on record: 200 µg/mL. As to the method: An in vitro α-amylase enzyme inhibitory assay was performed by the standard protocol. Four milligrams per 1 mL of sample was prepared in DMSO. In each well of a 96-well plate, synthetic compounds were added to a final concentration of 200 µg/mL. To this, 15 μL phosphate buffer, […] α-amylase enzyme and 40 μL starch solution were added stepwise. The microplate was incubated at 50 °C for 30 min. […] The formula used to calculate the percent enzyme inhibition is:% Enzyme inhibition = [(As − An) ÷ (Ab − An] × 100
As = sample’s absorbance; An = negative’s absorbance; Ab = blank’s absorbance

A short description of data set [3]: Phosphomolybdenum-based total antioxidant capacity (TAC). Here is the method: In the presence of an antioxidant, the phosphomolybdate ion gets reduced and a green phosphate–molybdate complex is formed, which is analyzed spectrophotometrically.
The total antioxidant capacity was determined by using the phosphomolybdenum-based method. The method is based on the reduction of Mo (VI) to Mo (V), leading to the formation of a green-colored phosphate–molybdenum complex that gives absorption at 630 nm. In 96-well plates, 20 µL of the sample was added with 180 µL TAC reagents in it and incubated at 95 °C for 90 min in a water bath and cooled at room temperature. The results were calculated as µg AAE/mg.

Usually IC50 stands for the concentration needed to halve the response being measured.

As to `c1ccc2c(c1)CCCN2CN1CCCCC1` [SF1, 1-(Piperidine-1-ylmethyl) 1,2,3,4-tetrahahydroquinoline], in data set [1], the activity at 1 µM was determined as 27.8 ± 0.45%, the activity at 10 µM is 26 ± 0.43%, the activity at 50 µM is 23.7 ± 0.41% and the activity at 100 µM amounted to 17.3 ± 0.35%. In the data set on raw macrophages, this compound registered a 50% inhibitory concentration (IC50) of 6.23 ± 0.01 µM. This compound also showed a Paw thickness in data set [2] (0 h after carrageenan injection) of 2.06 ± 0.07. In addition, the Paw thickness in data set [2] (2 h after carrageenan injection) stood at 2.13 ± 0.03. Also, the Paw thickness in data set [2] (4 h after carrageenan injection) is listed as 2.18 ± 0.06. The compound also registered a Paw thickness in data set [2] (6 h after carrageenan injection) of 2.25 ± 0.05.

Turning to `CN1CCN(CN2CCCc3ccccc32)CC1` [SF5], in data set [1], the activity at 1 µM was found to be 51.43 ± 0.48%, the activity at 10 µM came out at 43 ± 0.45%, the activity at 50 µM worked out at 28.6 ± 0.44% and the activity at 100 µM is 21.9 ± 0.38%. The “% inhibition of α-amylase enzyme” value in the data set on α-amylase enzyme is listed as 97.37%. Moreover, the “Total antioxidant capacity (TAC)” value in data set [3] turned out to be 285.46 ± 2.1 µg/AAE.

Consider `c1ccc(N(CN2CCCc3ccccc32)c2ccccc2)cc1` [SF7, N-((3,4-dihydroquinolin-1(2H)-yl)methyl)-N-phenylaniline], for which, in data set [1], the activity at 1 µM worked out at 69.71 ± 0.65%, the activity at 10 µM came to 63.12 ± 0.61%, the activity at 50 µM was 21.4 ± 0.48% and the activity at 100 µM is 17.5 ± 0.45%. In addition, in the data set with α-amylase enzyme, the “% inhibition of α-amylase enzyme” value turned out to be 88.67%. The “Total antioxidant capacity (TAC)” value in data set [3] is 242.77 ± 2.31 µg/AAE.
